The source made the active and inactive calls. The rule behind the calls is not given here. Where only a bound is given, the exact number is not on record here.

Results on eleven compounds are retold here after ChEMBL document CHEMBL5385875, “Tumor killing by a dietary curcumin mono-carbonyl analog that works as a selective ROS generator via TrxR inhibition” (Eur J Med Chem, 2023).

One series has as its system NCI-H460. Nature of the series: Induction of intracellular ROS accumulation in human NCI-H460 cells at 2 uM measured after 6 hrs by DCFH-DA dye based fluorescence assay. The series is classed as functional, cell-based.
Conditions: not given
As for `O=C1/C(=C/c2ccccc2)CNC/C1=C\c1ccccc1`, the result was inactive.

`COc1cc(/C=C/C(=O)CC(=O)/C=C/c2ccc(O)c(OC)c2)ccc1O` [CURCUMIN]: the outcome was inactive.

`O=C1/C(=C/c2ccccc2C(F)(F)F)CNC/C1=C\c1ccccc1C(F)(F)F`: the outcome was inactive.

Take `COc1ccccc1/C=C1\CNC/C(=C\c2ccccc2OC)C1=O`: the result was inactive.

In the case of `O=C1/C(=C/c2ccc(C(F)(F)F)cc2)CNC/C1=C\c1ccc(C(F)(F)F)cc1`, the result was inactive.

Consider `COc1ccc(/C=C2\CNC/C(=C\c3ccc(OC)cc3)C2=O)cc1`, for which the result was inactive.

Regarding `COc1cccc(/C=C2\CNC/C(=C\c3cccc(OC)c3)C2=O)c1`, the outcome was inactive.

Another series has as its system A549. Nature of the series: Cytotoxicity against human A549 cells assessed as reduction in cell viability incubated for 48 hrs by MTT assay. The format is functional, cell-based. The note with it: A549, 48 h. In general terms: Tetrazolium assays rely on reduction of a dye to a coloured formazan, in cell work by metabolically active cells.
Regarding `CN1C/C(=C\c2ccccc2)C(=O)/C(=C/c2ccccc2)C1`, the IC50 – broadly, the concentration at which inhibition is half-maximal – is 11.3 µM.

`COc1cccc(/C=C2\CN(C)C/C(=C\c3cccc(OC)c3)C2=O)c1`: the IC50 is 1.18 µM.

Take `COc1ccccc1/C=C1\CCC/C(=C\c2ccccc2OC)C1=O`: the IC50 worked out at 66.8 µM.

`O=C1/C(=C/c2ccccc2)CNC/C1=C\c1ccccc1`: the IC50 worked out at 7.36 µM.

As to `O=C1/C(=C/c2ccc(C(F)(F)F)cc2)CCC/C1=C\c1ccc(C(F)(F)F)cc1`, the IC50 was found to be 2.97 µM.

For the compound `COc1cc(/C=C/C(=O)CC(=O)/C=C/c2ccc(O)c(OC)c2)ccc1O` [CURCUMIN], the IC50 worked out at 44.8 µM.

With `O=C1/C(=C/c2ccccc2C(F)(F)F)CNC/C1=C\c1ccccc1C(F)(F)F`, the IC50 was greater than 100 µM.

Take `COc1ccccc1/C=C1\CNC/C(=C\c2ccccc2OC)C1=O`: the IC50 turned out to be 3.32 µM.

As to `O=C1/C(=C/c2ccc(C(F)(F)F)cc2)CNC/C1=C\c1ccc(C(F)(F)F)cc1`, the concentration for half-maximal inhibition (IC50) was determined as 2.02 µM.

In the case of `COc1ccc(/C=C2\CNC/C(=C\c3ccc(OC)cc3)C2=O)cc1`, the IC50 was greater than 100 µM.

As to `COc1cccc(/C=C2\CNC/C(=C\c3cccc(OC)c3)C2=O)c1`, the IC50 is 14.3 µM.

The subject of another series is NCI-H460. Nature of the series: Cytotoxicity against human NCI-H460 cells assessed as reduction in cell viability incubated for 48 hrs by MTT assay. The format is functional, cell-based. The note with it: NCI-H460, 48 h.
On to `CN1C/C(=C\c2ccccc2)C(=O)/C(=C/c2ccccc2)C1`, for which the IC50 worked out at 26.9 µM.

For `COc1cccc(/C=C2\CN(C)C/C(=C\c3cccc(OC)c3)C2=O)c1`, the half-inhibitory concentration (IC50) was 5.68 µM.

With `COc1ccccc1/C=C1\CCC/C(=C\c2ccccc2OC)C1=O`, the IC50 turned out to be 79.8 µM.

Turning to `O=C1/C(=C/c2ccccc2)CNC/C1=C\c1ccccc1`, the IC50 amounted to 2.34 µM.

On to `O=C1/C(=C/c2ccc(C(F)(F)F)cc2)CCC/C1=C\c1ccc(C(F)(F)F)cc1`, for which the IC50 turned out to be 14.4 µM.

For `O=C1/C(=C/c2ccccc2C(F)(F)F)CNC/C1=C\c1ccccc1C(F)(F)F`, the 50% inhibitory concentration (IC50) is greater than 100 µM.

For the compound `COc1ccccc1/C=C1\CNC/C(=C\c2ccccc2OC)C1=O`, the IC50 was found to be 2.88 µM.

Take `O=C1/C(=C/c2ccc(C(F)(F)F)cc2)CNC/C1=C\c1ccc(C(F)(F)F)cc1`: the IC50 is 7.11 µM.

In the case of `COc1ccc(/C=C2\CNC/C(=C\c3ccc(OC)cc3)C2=O)cc1`, the concentration for half-maximal inhibition (IC50) is greater than 100 µM.

With `COc1cccc(/C=C2\CNC/C(=C\c3cccc(OC)c3)C2=O)c1`, the IC50 came out at 7.93 µM.

System in another series: not listed separately
As to the kind of experiment: Selectivity index, ratio of IC50 for human MRC5 cells to IC50 for human NCI-H460 cells. The format is toxicity. To be noted: MRC5 cells versus NCI-H460 cells, read-out: Ratio IC50.
In the case of `CN1C/C(=C\c2ccccc2)C(=O)/C(=C/c2ccccc2)C1`, the selectivity ratio came out at 1.16.

For `COc1cccc(/C=C2\CN(C)C/C(=C\c3cccc(OC)c3)C2=O)c1`, the selectivity ratio is 2.37.

As for `O=C1/C(=C/c2ccccc2)CNC/C1=C\c1ccccc1`, the selectivity ratio was 2.07.

With `O=C1/C(=C/c2ccc(C(F)(F)F)cc2)CCC/C1=C\c1ccc(C(F)(F)F)cc1`, the selectivity ratio came out at 3.32.

On to `COc1cc(/C=C/C(=O)CC(=O)/C=C/c2ccc(O)c(OC)c2)ccc1O` [CURCUMIN], for which the selectivity ratio came to 2.52.

As to `COc1ccccc1/C=C1\CNC/C(=C\c2ccccc2OC)C1=O`, the selectivity ratio stood at 1.27.

Turning to `O=C1/C(=C/c2ccc(C(F)(F)F)cc2)CNC/C1=C\c1ccc(C(F)(F)F)cc1`, the selectivity ratio came out at 1.22.

Take `COc1cccc(/C=C2\CNC/C(=C\c3cccc(OC)c3)C2=O)c1`: the selectivity ratio stood at 1.23.

In a further series the test system is HT-1080. As to the kind of experiment: Cytotoxicity against human HT-1080 cells assessed as reduction in cell viability incubated for 48 hrs by MTT assay. The series is classed as functional, cell-based. To be noted: HT-1080, 48 h.
Turning to `CN1C/C(=C\c2ccccc2)C(=O)/C(=C/c2ccccc2)C1`, the IC50 was 3.82 µM.

Consider `COc1cccc(/C=C2\CN(C)C/C(=C\c3cccc(OC)c3)C2=O)c1`, for which the IC50 worked out at 1.99 µM.

For `COc1ccccc1/C=C1\CCC/C(=C\c2ccccc2OC)C1=O`, the IC50 is greater than 100 µM.

For `O=C1/C(=C/c2ccccc2)CNC/C1=C\c1ccccc1`, the half-maximal inhibitory concentration (IC50) was 5.41 µM.

With `O=C1/C(=C/c2ccc(C(F)(F)F)cc2)CCC/C1=C\c1ccc(C(F)(F)F)cc1`, the IC50 was 7.2 µM.

Take `COc1cc(/C=C/C(=O)CC(=O)/C=C/c2ccc(O)c(OC)c2)ccc1O` [CURCUMIN]: the IC50 came to 21.9 µM.

As for `O=C1/C(=C/c2ccccc2C(F)(F)F)CNC/C1=C\c1ccccc1C(F)(F)F`, the IC50 is greater than 100 µM.

Regarding `COc1ccccc1/C=C1\CNC/C(=C\c2ccccc2OC)C1=O`, the concentration for half-maximal inhibition (IC50) came to 35.9 µM.

As for `O=C1/C(=C/c2ccc(C(F)(F)F)cc2)CNC/C1=C\c1ccc(C(F)(F)F)cc1`, the IC50 was determined as 5.48 µM.

Regarding `COc1ccc(/C=C2\CNC/C(=C\c3ccc(OC)cc3)C2=O)cc1`, the IC50 was greater than 100 µM.

For `COc1cccc(/C=C2\CNC/C(=C\c3cccc(OC)c3)C2=O)c1`, the IC50 is 20 µM.

The test system of the next series is HepG2. As to the kind of experiment: Cytotoxicity against human HepG2 cells assessed as reduction in cell viability incubated for 48 hrs by MTT assay. To be noted: HepG2, 48 h. The series is classed as functional, cell-based.
As to `CN1C/C(=C\c2ccccc2)C(=O)/C(=C/c2ccccc2)C1`, the IC50 stood at 10.6 µM.

Regarding `COc1cccc(/C=C2\CN(C)C/C(=C\c3cccc(OC)c3)C2=O)c1`, the IC50 was 1.36 µM.

Turning to `COc1ccccc1/C=C1\CCC/C(=C\c2ccccc2OC)C1=O`, the concentration for half-maximal inhibition (IC50) worked out at 60.1 µM.

For the compound `O=C1/C(=C/c2ccccc2)CNC/C1=C\c1ccccc1`, the IC50 was determined as 1.38 µM.

Take `O=C1/C(=C/c2ccc(C(F)(F)F)cc2)CCC/C1=C\c1ccc(C(F)(F)F)cc1`: the half-maximal inhibitory concentration (IC50) is greater than 100 µM.

On to `COc1cc(/C=C/C(=O)CC(=O)/C=C/c2ccc(O)c(OC)c2)ccc1O` [CURCUMIN], for which the IC50 is 22.8 µM.

Regarding `O=C1/C(=C/c2ccccc2C(F)(F)F)CNC/C1=C\c1ccccc1C(F)(F)F`, the half-inhibitory concentration (IC50) was greater than 100 µM.

Consider `COc1ccccc1/C=C1\CNC/C(=C\c2ccccc2OC)C1=O`, for which the IC50 amounted to 1.93 µM.

Regarding `O=C1/C(=C/c2ccc(C(F)(F)F)cc2)CNC/C1=C\c1ccc(C(F)(F)F)cc1`, the IC50 came out at 37.1 µM.

Take `COc1ccc(/C=C2\CNC/C(=C\c3ccc(OC)cc3)C2=O)cc1`: the IC50 is greater than 100 µM.

Regarding `COc1cccc(/C=C2\CNC/C(=C\c3cccc(OC)c3)C2=O)c1`, the IC50 came to 5.19 µM.

System in another series: not listed separately
As to the kind of experiment: Cytotoxicity against human MRC5 cells assessed as reduction in cell viability incubated for 48 hrs by MTT assay.
Conditions: not given
The series is classed as toxicity, cell-based.
Consider `CN1C/C(=C\c2ccccc2)C(=O)/C(=C/c2ccccc2)C1`, for which the IC50 at 48 h is 31.3 µM.

With `COc1cccc(/C=C2\CN(C)C/C(=C\c3cccc(OC)c3)C2=O)c1`, the IC50 at 48 h came to 13.4 µM.

Take `COc1ccccc1/C=C1\CCC/C(=C\c2ccccc2OC)C1=O`: the IC50 at 48 h was greater than 100 µM.

For the compound `O=C1/C(=C/c2ccccc2)CNC/C1=C\c1ccccc1`, the IC50 at 48 h was 4.85 µM.

As to `O=C1/C(=C/c2ccc(C(F)(F)F)cc2)CCC/C1=C\c1ccc(C(F)(F)F)cc1`, the IC50 at 48 h came to 47.7 µM.

With `COc1cc(/C=C/C(=O)CC(=O)/C=C/c2ccc(O)c(OC)c2)ccc1O` [CURCUMIN], the IC50 at 48 h worked out at 51.2 µM.

For the compound `O=C1/C(=C/c2ccccc2C(F)(F)F)CNC/C1=C\c1ccccc1C(F)(F)F`, the IC50 at 48 h is greater than 100 µM.

`COc1ccccc1/C=C1\CNC/C(=C\c2ccccc2OC)C1=O`: the IC50 at 48 h stood at 3.67 µM.

On to `O=C1/C(=C/c2ccc(C(F)(F)F)cc2)CNC/C1=C\c1ccc(C(F)(F)F)cc1`, for which the half-maximal inhibitory concentration (IC50) at 48 h was 8.65 µM.

In the case of `COc1ccc(/C=C2\CNC/C(=C\c3ccc(OC)cc3)C2=O)cc1`, the IC50 at 48 h is greater than 100 µM.

In the case of `COc1cccc(/C=C2\CNC/C(=C\c3cccc(OC)c3)C2=O)c1`, the IC50 at 48 h was found to be 9.11 µM.

A further series has as its system NCI-H460. Nature of the series: Induction of ROS accumulation in human NCI-H460 cells assessed as reduction in GSH levels by measuring yellow green fluorescence incubated for 9 hrs by fluorescence microscope based analysis.
Conditions: not given
The format is functional, cell-based.
On to `O=C1/C(=C/c2ccccc2)CNC/C1=C\c1ccccc1`, for which the result was inactive.

`COc1cc(/C=C/C(=O)CC(=O)/C=C/c2ccc(O)c(OC)c2)ccc1O` [CURCUMIN]: the outcome was inactive.

Another series has as its target Thioredoxin reductase (Homo sapiens) (UniProt Q16881+Q9NNW7+Q86VQ6). As to the kind of experiment: Inhibition of TrxR in human NCI-H460 cells at 2 uM measured after 6 hrs by fluorescence microscopy based analysis. The format is cell-based.
Conditions: not given
Regarding `O=C1/C(=C/c2ccccc2)CNC/C1=C\c1ccccc1`, the inhibition result is “inactive”.

In the case of `COc1cc(/C=C/C(=O)CC(=O)/C=C/c2ccc(O)c(OC)c2)ccc1O` [CURCUMIN], the inhibition entry is “inactive”.
